Measured values from article PMC5431883, “Enhancing Specific Disruption of Intracellular Protein Complexes by Hydrocarbon Stapled Peptides Using Lipid Based Delivery” (Scientific Reports, 2017).
Positions of bridges follow the written chain, without caps; N, C: chain ends. Non-standard residues stand in square brackets, D forms with d. Residues, ends and D or L forms follow the SMILES beside them. Trp(6-Cl) = N[C@@H](Cc1c[nH]c2cc(Cl)ccc12)C(=O)O; R8 = C=CCCCCCC[C@@](C)(N)C(=O)O; Cba = N[C@@H](CC1CCC1)C(=O)O; S5 = C=CCCC[C@](C)(N)C(=O)O; Ahx = NCCCCCC(=O)O

Tests used:
[1] = system: T22 cells; assay: Lactate dehydrogenase (LDH) release assay in T22 cells; assay type: cell-based, murine; settings: for LDH Release (T22 Cells), 0% FCS (LDH50) / LDH Release (T22 Cells), 10% FCS (LDH50): 2 h treatment, normalised to 0.1% Triton X-100 lysis, 4 parameter fit to 10 point titration
Experimental: (§1) T22 cells or HEK 293 cells were seeded into a 96-well plate at a cell density of 5000 cells per well. Cells were maintained in Dulbecco’s Minimal Eagle Medium (DMEM) with 10% fetal bovine serum (FBS) and 1% (v/v) penicillin/streptomycin. The cells were incubated for 24 hours followed by cell media removal and addition of 90 µl of DMEM either with or without 10% FCS. Cells were then treated with compounds/peptide for 2 hours in DMEM with or without 10% FBS. Final working concentration of DMSO was 1% v/v. Corresponding negative control wells with 1% DMSO only were also prepared. Cytosolic lactate dehydrogenase release was detected using the cytoTox 96® non-radioactive cytotoxicity Assay kit (Promega) as per manufacturer’s instructions. Measurements were carried out using an Envision multiplate reader (Perkin-Elmer). Maximum LDH release was defined as the amount of LDH released when cells were lysed in the presence of 0.1% TRITON X-100 and was used to normalize the results.

[2] = target: T1, Mdm2 (1-125) (Homo sapiens, UniProt Q00987); assay: Mdm2 competitive fluorescence anisotropy assay (FAM-labeled 12/1 peptide displacement); assay type: binding; settings: for Kd: read-out: Kd (apparent dissociation constant, competitive fluorescence anisotropy); as to Kd (apparent dissociation constant, competitive fluorescence anisotropy): 250 nM MDM2
T1 construct: Purified MDM2 (1-125) protein was titrated against 50 nM carboxyfluorescein (FAM)-labeled; GST (N, cleaved yes); made in house; host or cells: E. coli BL21 DE3 (pGEX-6P-1)
T1 sequence (Q00987 1-125): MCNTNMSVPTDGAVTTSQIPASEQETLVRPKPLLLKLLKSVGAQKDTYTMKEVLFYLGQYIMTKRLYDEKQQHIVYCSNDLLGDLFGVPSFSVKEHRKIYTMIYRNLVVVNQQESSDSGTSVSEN
Experimental: analyzed with SDS page gel and concentrated using a Centricon (3.5 kDa MWCO) concentrator, Millipore. Mdm2 protein samples were then dialyzed into a buffer solution containing 20mM Bis-Tris, pH 6.5, 0.05M NaCl with 1mM DTT and loaded onto a monoS column pre-equilibrated in buffer A (20mM Bis-Tris, pH 6.5, 1mM DTT). The column was then washed in 6 column volumes of buffer A and bound protein was eluted with a linear gradient of 1M NaCL over 25 column volumes. Protein fractions were analyzed with SDS page gel and concentrated using a Centricon (3.5 kDa MWCO) concentrator, Millipore.
Protein concentration was determined using A280 using an extinction coefficients […]
Mdm2 Competitive Fluorescence Anisotropy Assay and Kd Determination […]
Dissociation constants for titration of MDM2 against […]
equation shown below:25,26
[P] is the protein concentration (MDM2), [L] is the labeled peptide concentration, r is the anisotropy measured, r0 is the anisotropy of the free peptide, rb is the anisotropy of the MDM2– FAM-labeled peptide complex, Kd is the dissociation constant, [L]t is the total FAM labeled
(1 picture or pasted object on this page, not shown here) […]
peptide concentration, and [P]t is the total MDM2 concentration. […]
respective competing ligands in subsequent competition assays.
Apparent Kd values were determined for a variety of molecules via competitive fluorescence anisotropy experiments. Titrations were carried out with the concentration of MDM2 held constant […]
The competing molecules were then titrated against the complex of the FAM-labeled peptide and protein. Apparent Kd values were determined by fitting the experimental data to the equations shown below:26,27 […]
[L]st and [L]t denote labeled ligand and total unlabeled ligand input concentrations, respectively.
Kd2 is the dissociation constant of the interaction between the unlabeled ligand and the protein. In […]
all competitive types of experiments, it is assumed that [P]t > [L]st, otherwise considerable amounts of free labeled ligand would always be present and would interfere with measurements. Kd1 is the […]
experimentally determined as described in the previous paragraph. The FAM-labeled peptide was dissolved in dimethyl sulfoxide (DMSO) at 1 mM and diluted into experimental buffer. Readings were carried out with an Envision Multilabel Reader (PerkinElmer). Experiments were carried out […]
Tween 20 buffer. All titrations were carried out in triplicate. Curve-fitting was carried out using […]
Negative control titrations of the ligands under investigation were also carried out with the fluorescently labeled peptide (in the absence of MDM2) to ensure no interactions were occurring between the ligands and FAM-labeled peptide. […]
which would otherwise indicate an unintended interaction between the ligand and the FAM-labeled peptide to be displaced from the MDM2 binding site. […]

[3] = system: T22 p53 reporter cells; assay: p53 gene reporter assay (β-galactosidase) in T22 cells; assay type: cell-based, murine; settings: for P53 Activation (T22 Cells), 0% FCS (p53ACT50 / EC50) / P53 Activation (T22 Cells), 10% FCS (p53ACT50 / EC50): 18 h, 1% DMSO, normalised to 25 µM Nutlin, 4 parameter fit to 10 point titration
Experimental: T22 cells, which were stably transfected with a p53 responsive β-galactosidase reporter, were seeded into a 96-well plate at a cell density of 8000 cells per well. Cells were also maintained in Dulbecco’s Minimal Eagle Medium (DMEM) with 10% fetal calf serum (FCS) and 1% (v/v) penicillin/streptomycin. The cells were incubated for 24 hours and followed by cell media removal and replacement with 90 µl of fresh DMEM either containing 10% FCS or 0% FCS. 10 µl of each compound was then added directly to each well and incubated for 18 hours. Final working concentration of DMSO was 1% v/v. […] Measurements were carried out using an Envision multiplate reader (Perkin-Elmer). […] This was then used to normalize the experimental results.

[4] = system: HEK293 cells; assay: Lactate dehydrogenase (LDH) release assay in HEK293 cells; assay type: cell-based; settings: 0% FCS, 2 hour treatment, 12.5, 25 and 50 µM, normalised to 0.1% Triton X100 (Figure S1)
Experimental: as §1, with “results. […]” for “results.”
to induce LDH release in HEK293 cells after a 2 hour treatment period in A) the absence of FCS and B) the presence of 10% FCS. Compounds were tested at concentrations of 12.5 µM, 25 µM and 50 µM. Results were normalized to maximal LDH release as measured by treatment with 0.1% Triton X100.
(1 picture or pasted object on this page, not shown here)

CC(=O)N[C@@H](CCCCN)C(=O)N[C@@H](CCCCN)C(=O)NCCCCCC(=O)N[C@H](C(=O)N[C@@H](CO)C(=O)N[C@@H](CC(C)C)C(=O)N[C@]1(C)CCCCCCC=CCCC[C@@](C)(C(=O)N[C@@H](CCC(=O)O)C(=O)N[C@@H](CC(N)=O)C(=O)N[C@@H](Cc2ccccc2)C(N)=O)NC(=O)[C@H](Cc2c[nH]c3ccccc23)NC(=O)[C@H](CC(C)C)NC(=O)[C@H](C)NC(=O)[C@H](Cc2ccccc2)NC(=O)[C@H](Cc2ccc(O)cc2)NC(=O)[C@H](CCC(=O)O)NC1=O)[C@@H](C)O [VIP-82^SCRAM] (Ac-KK[Ahx]TSL[R8]EYFALW[S5]ENF-NH2; staple 7-14)
LDH Release (T22 Cells), 0% FCS (LDH50) [1]: No Release
LDH Release (T22 Cells), 10% FCS (LDH50) [1]: No Release
LDH release, peptide formulated with SaintPhD (in words) ([1]; formulated with SaintPhD (Figure S2)): did not induce any p53 activity or LDH release
binding against Mdm2 in the FA competition assay (in words) [2]: no binding
P53 Activation (T22 Cells), 0% FCS (p53ACT50 / EC50) [3]: No Activity
P53 Activation (T22 Cells), 10% FCS (p53ACT50 / EC50) [3]: No Activity
p53 activity, peptide formulated with SaintPhD (in words) ([3]; formulated with SaintPhD, conditions identical to VIP-82:SaintPhD (Figure S2)): did not induce any p53 activity or LDH release

CC(=O)N[C@H](CCCCN)C(=O)NCCCCCC(=O)N[C@H](C(=O)N[C@@H](CO)C(=O)N[C@@H](Cc1ccccc1)C(=O)N[C@]1(C)CCCCCCC=CCCC[C@@](C)(C(=O)N[C@@H](CCC(=O)O)C(=O)N[C@@H](CC(N)=O)C(=O)N[C@@H](Cc2ccccc2)C(N)=O)NC(=O)[C@H](CC(C)C)NC(=O)[C@H](CC(C)C)NC(=O)[C@H](C)NC(=O)[C@H](Cc2c[nH]c3ccccc23)NC(=O)[C@H](Cc2ccc(O)cc2)NC(=O)[C@H](CCC(=O)O)NC1=O)[C@@H](C)O [VIP-132]
Kd [2]: 8 ± 0.8 nM

CC(=O)N[C@H](CCCCN)C(=O)N[C@H](CCCCN)C(=O)NCCCCCC(=O)N[C@H](C(=O)N[C@@H](CO)C(=O)N[C@@H](Cc1ccccc1)C(=O)N[C@]1(C)CCCCCCC=CCCC[C@@](C)(C(=O)N[C@@H](CCC(=O)O)C(=O)N[C@@H](CC(N)=O)C(=O)N[C@@H](Cc2ccccc2)C(N)=O)NC(=O)[C@H](CC(C)C)NC(=O)[C@H](CC(C)C)NC(=O)[C@H](C)NC(=O)[C@H](Cc2c[nH]c3ccccc23)NC(=O)[C@H](Cc2ccc(O)cc2)NC(=O)[C@H](CCC(=O)O)NC1=O)[C@@H](C)O [VIP-133] (Ac-[dK][dK][Ahx]TSF[R8]EYWALL[S5]ENF-NH2; staple 7-14)
Kd [2]: 10 ± 1 nM

CC(=O)N[C@H](CCCCN)C(=O)N[C@H](CCCCN)C(=O)N[C@H](CCCCN)C(=O)NCCCCCC(=O)N[C@H](C(=O)N[C@@H](CO)C(=O)N[C@@H](Cc1ccccc1)C(=O)N[C@]1(C)CCCCCCC=CCCC[C@@](C)(C(=O)N[C@@H](CCC(=O)O)C(=O)N[C@@H](CC(N)=O)C(=O)N[C@@H](Cc2ccccc2)C(N)=O)NC(=O)[C@H](CC(C)C)NC(=O)[C@H](CC(C)C)NC(=O)[C@H](C)NC(=O)[C@H](Cc2c[nH]c3ccccc23)NC(=O)[C@H](Cc2ccc(O)cc2)NC(=O)[C@H](CCC(=O)O)NC1=O)[C@@H](C)O [VIP-134] (Ac-[dK][dK][dK][Ahx]TSF[R8]EYWALL[S5]ENF-NH2; staple 8-15)
Kd [2]: 6.2 ± 0.9 nM

CC(=O)N[C@H](C(=O)N[C@@H](CO)C(=O)N[C@@H](Cc1ccccc1)C(=O)N[C@]1(C)CCCCCCC=CCCC[C@@](C)(C(=O)N[C@@H](CCC(=O)O)C(N)=O)NC(=O)[C@H](CC(C)C)NC(=O)[C@H](CC(C)C)NC(=O)[C@H](C)NC(=O)[C@H](Cc2c[nH]c3cc(Cl)ccc23)NC(=O)[C@H](Cc2ccc(O)cc2)NC(=O)[C@H](CCC(=O)O)NC1=O)[C@@H](C)O [VIP-137]
Kd [2]: < 1 nM

CC(=O)N[C@H](C(=O)N[C@@H](CO)C(=O)N[C@@H](Cc1ccccc1)C(=O)N[C@]1(C)CCCCCCC=CCCC[C@@](C)(C(=O)N[C@@H](CCC(=O)O)C(N)=O)NC(=O)[C@H](CC2CCC2)NC(=O)[C@H](CC(C)C)NC(=O)[C@H](C)NC(=O)[C@H](Cc2c[nH]c3cc(Cl)ccc23)NC(=O)[C@H](Cc2ccc(O)cc2)NC(=O)[C@H](CCC(=O)O)NC1=O)[C@@H](C)O [VIP-138] (Ac-TSF[R8]EY[Trp(6-Cl)]AL[Cba][S5]E-NH2; staple 4-11)
Kd [2]: < 1 nM

CC(C)C[C@@H]1NC(=O)[C@H](C)NC(=O)[C@H](Cc2c[nH]c3ccccc23)NC(=O)[C@H](Cc2ccc(O)cc2)NC(=O)[C@H](CCC(=O)O)NC(=O)[C@](C)(NC(=O)[C@H](Cc2ccccc2)NC(=O)[C@H](CO)NC(=O)[C@@H](NC(=O)CNC(=O)[C@H](CO)NC(=O)CNC(=O)[C@H](CO)NC(=O)CCCC[C@@H]2SC[C@@H]3NC(=O)N[C@@H]32)[C@@H](C)O)CCCCCCC=CCCC[C@@](C)(C(N)=O)NC(=O)[C@H](CC(C)C)NC1=O [VIP-150]
Kd [2]: 54.2 ± 5.9 nM

CC(=O)N[C@@H](CCCCN)C(=O)N[C@@H](CCCCN)C(=O)N[C@@H](CO)C(=O)NCC(=O)N[C@@H](CO)C(=O)NCC(=O)N[C@H](C(=O)N[C@@H](CO)C(=O)N[C@@H](Cc1ccccc1)C(=O)N[C@]1(C)CCCCCCC=CCCC[C@@](C)(C(N)=O)NC(=O)[C@H](CC(C)C)NC(=O)[C@H](CC(C)C)NC(=O)[C@H](C)NC(=O)[C@H](Cc2c[nH]c3ccccc23)NC(=O)[C@H](Cc2ccc(O)cc2)NC(=O)[C@H](CCC(=O)O)NC1=O)[C@@H](C)O [VIP-151] (Ac-KKSGSGTSF[R8]EYWALL[S5]-NH2; staple 10-17)
Kd [2]: 33.6 ± 5.6 nM

CC(=O)N[C@H](C(=O)N[C@@H](CO)C(=O)N[C@@H](CC(C)C)C(=O)N[C@]1(C)CCCCCCC=CCCC[C@@](C)(C(N)=O)NC(=O)[C@H](Cc2c[nH]c3ccccc23)NC(=O)[C@H](CC(C)C)NC(=O)[C@H](C)NC(=O)[C@H](Cc2ccccc2)NC(=O)[C@H](Cc2ccc(O)cc2)NC(=O)[C@H](CCC(=O)O)NC1=O)[C@@H](C)O [sMTIDE-02^SCRAM] (Ac-TSL[R8]EYFALW[S5]-NH2; staple 4-11)
LDH release in HEK293 cells, absence of serum (in words) [4]: induced significant amounts of LDH release
LDH Release (T22 Cells), 0% FCS (LDH50) [1]: 25.1 ± 2.8 µM
LDH Release (T22 Cells), 10% FCS (LDH50) [1]: 105 ± 8.0 µM
binding against Mdm2 in the FA competition assay (in words) [2]: no binding
P53 Activation (T22 Cells), 0% FCS (p53ACT50 / EC50) [3]: No Activity
P53 Activation (T22 Cells), 10% FCS (p53ACT50 / EC50) [3]: No Activity
